Structures can show the parent of a compound that is named as a salt. Where two headings read alike, the source gives them in different places.
Target: Btk enzyme (His-Btk) (Homo sapiens (Human), UniProt Q06187)
Assay: Btk enzyme activity, IMAP fluorescence polarization assay (Assay Method A)
[1] = read-out: EC50 Btk activity values - Assay Method A, IMAP-FP, 60 min pre-incubation, 5 μM ATP, class 100-1000 is given as ≧100 nM-<1 μM

Chain of Btk enzyme (His-Btk) (Q06187 whole entry): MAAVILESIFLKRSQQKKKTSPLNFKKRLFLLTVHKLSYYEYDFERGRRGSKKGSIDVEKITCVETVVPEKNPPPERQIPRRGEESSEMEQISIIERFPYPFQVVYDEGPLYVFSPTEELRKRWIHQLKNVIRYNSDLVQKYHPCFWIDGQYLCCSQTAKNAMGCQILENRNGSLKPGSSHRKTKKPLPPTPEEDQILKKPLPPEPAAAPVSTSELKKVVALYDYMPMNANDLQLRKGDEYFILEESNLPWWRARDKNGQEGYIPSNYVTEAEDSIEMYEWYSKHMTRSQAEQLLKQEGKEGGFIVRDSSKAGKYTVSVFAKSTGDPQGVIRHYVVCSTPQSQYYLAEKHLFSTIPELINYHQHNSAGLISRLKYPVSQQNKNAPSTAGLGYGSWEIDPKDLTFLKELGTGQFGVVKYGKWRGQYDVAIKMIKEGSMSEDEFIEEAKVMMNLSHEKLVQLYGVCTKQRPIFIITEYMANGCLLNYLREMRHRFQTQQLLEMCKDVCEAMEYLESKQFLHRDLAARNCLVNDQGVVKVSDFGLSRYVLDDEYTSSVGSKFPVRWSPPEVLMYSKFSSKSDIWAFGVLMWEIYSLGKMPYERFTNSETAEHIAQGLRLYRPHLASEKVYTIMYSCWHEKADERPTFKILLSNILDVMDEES
Experimental: Inhibition of kinase activity can be measured using the Immobilized Metal Assay for Phosphochemicals (IMAP) assay. IMAP is a homogeneous fluorescence polarization (FP) assay based on affinity capture of phosphorylated peptide substrates. IMAP uses fluorescein-labeled peptide substrates that, upon phosphorylation by a protein kinase, bind to so-called IMAP nanoparticles, which are derivatized with trivalent metal complexes.
Btk enzyme activity is measured using the IMAP (immobilized metal ion affinity-based fluorescence polarization) assay as outlined below.
Test compounds and Btk enzyme are pre-incubated 60 minutes at room temperature, before adding 5 μL/well of 200 nM Fluorescin labeled substrate peptide (Blk/Lyntide substrate, e.g. #R7188/#R7233, Molecular Devices) in KR-buffer. Final peptide substrate concentration in assay is 50 nM. […] Following incubation for 2 h at room temperature the enzyme reaction is stopped by adding 40 μL/well IMAP Progressive Binding Solution (according to suppliers (Molecular Devices) protocol using 75% 1× buffer A and 25% 1× buffer B with 1:600 Progressive Binding Solution). After 60 min incubation at room temperature in the dark the FP signal is read. […] Values are calculated as percentage of the difference in readout (ΔmPi) of the controls with and without ATP. EC50 values are determined by curve fitting of the experimental results using Activity Base.

Row | Structure (SMILES) | EC50 [1] | EC50
1 | CC1(C(=O)N2CCC[C@@H](c3nc(-c4ccc(C(=O)Nc5cc(C(F)(F)F)ccn5)cc4)c4c(N)ncnn34)C2)COC1 [Example 261, (R)-4-(4-amino-7-(1-(3-methyloxetane-3-carbonyl)piperidin-3-yl)imidazo[1,5-f][1,2,4]triazin-5-yl)-N-(4-(trifluoromethyl)pyridin-2-yl)benzamide] | < 10 nM | –
2 | N#Cc1ccnc(NC(=O)c2ccc(-c3nc(N4CCC4)n4ccnc(N)c34)cc2)c1 [Example 209, 4-(8-amino-3-(azetidin-1-yl)imidazo[1,5-a]pyrazin-1-yl)-N-(4-cyanopyridin-2-yl)benzamide] | – | 100 to 1000 nM
3 | COCCC(=O)N1CCC[C@@H](c2nc(-c3ccc(C(=O)Nc4ccccn4)c(C)c3)c3c(N)nccn23)C1 [Example 286, (R)-4-(8-amino-3-(1-(3-methoxypropanoyl)piperidin-3-yl)imidazo[1,5-a]pyrazin-1-yl)-2-methyl-N-(pyridin-2-yl)benzamide, TFA salt] | – | 10 to 100 nM
4 | Nc1ncnc2c1c(-c1ccc(C(=O)Nc3cc(C(F)(F)F)ccn3)cc1)nn2[C@@H]1CCCN(C(=O)C2CCC2)C1 [Example 277, (R)-4-(4-amino-1-(1-(cyclobutanecarbonyl)piperidin-3-yl)-1H-pyrazolo[3,4-d]pyrimidin-3-yl)-N-(4-(trifluoromethyl)pyridin-2-yl)benzamide] | < 10 nM | –
5 | CCNC(=O)N1CCOC(c2nc(-c3ccc(C(=O)Nc4cc(C(F)(F)F)ccn4)cc3)c3c(N)nccn23)C1 (stereo not drawn) [Example 178, 2-(8-amino-1-(4-(4-(trifluoromethyl)pyridin-2-ylcarbamoyl)phenyl)imidazo [1,5-a]pyrazin-3-yl)-N-ethylmorpholine-4-carboxamide] | < 10 nM | –
6 | Nc1nccn2c(C3CN(C(=O)C4CC4)CCO3)nc(-c3ccc(C(=O)Nc4cc(C(F)(F)F)ccn4)cc3)c12 (stereo not drawn) [Example 176, 4-(8-amino-3-(4-(cyclopropanecarbonyl)morpholin-2-yl)imidazo[1,5-a]pyrazin-1-yl)-N-(4-(trifluoromethyl)pyridin-2-yl)benzamide] | < 10 nM | –
7 | CN(C)CCCC(=O)N1CC[C@@H](c2nc(-c3ccc(C(=O)Nc4ccccn4)cc3)c3c(N)nccn23)C1 [Example 124, (R)-4-(8-amino-3-(1-(4-(dimethylamino)butanoyl)pyrrolidin-3-yl)imidazo[1,5-a]pyrazin-1-yl)-N-(pyridin-2-yl)benzamide] | – | 100 to 1000 nM
8 | Nc1nccn2c([C@@H]3CCCNC3)nc(-c3ccc(C(=O)Nc4cc(C(F)(F)F)ccn4)cc3)c12 [Example 106, (R)-4-(8-amino-3-(piperidin-3-yl)imidazo[1,5-a]pyrazin-1-yl)-N-(4-(trifluoromethyl)pyridin-2-yl)benzamide] | < 10 nM | –
9 | Nc1nccn2c(N3CCCC(C(=O)NC4CC(F)(F)C4)C3)nc(-c3ccc(C(=O)Nc4cc(C(F)(F)F)ccn4)cc3)c12 (stereo not drawn) [Example 226, 1-(8-amino-1-(4-(4-(trifluoromethyl)pyridin-2-ylcarbamoyl)phenyl)imidazo[1,5-a]pyrazin-3-yl)-N-(3,3-difluorocyclobutyl)piperidine-3-carboxamide, TFA salt] | < 10 nM | –
10 | Nc1nccn2c([C@@H]3CCC[C@@H](N)C3)nc(-c3ccc(C(=O)Nc4cc(C(F)(F)F)ccn4)cc3)c12 (relative stereo) [Example 165, 4-(8-amino-3-((trans)-3-aminocyclohexyl)imidazo[1,5-a]pyrazin-1-yl)-N-(4-(trifluoromethyl)pyridin-2-yl)benzamide] | < 10 nM | –
11 | CSCCC(=O)N1CCC[C@@H](c2nc(-c3ccc(C(=O)Nc4cc(C(F)(F)F)ccn4)cc3)c3c(N)nccn23)C1 [Example 69, (R)-4-(8-amino-3-(1-(3-(methylthio)propanoyl)piperidin-3-yl)imidazo[1,5-a]pyrazin-1 yl)-N-(4-(trifluoromethyl)pyridin-2-yl)benzamide] | – | < 10 nM
12 | Nc1ncnn2c([C@@H]3CCCNC3)nc(-c3ccc(C(=O)Nc4cc(C(F)(F)F)ccn4)cc3)c12 [Example 258, (R)-4-(4-amino-7-(piperidin-3-yl)imidazo[1,5-f][1,2,4]triazin-5-yl)-N-(4-(trifluoromethyl)pyridin-2-yl)benzamide] | – | 10 to 100 nM
13 | Nc1nccn2c([C@@H]3CCCN(C(=O)CN4CCOC4=O)C3)nc(-c3ccc(C(=O)Nc4cc(C5CC5)ccn4)cc3)c12 [Example 110, (R)-4-(8-amino-3-(1-(2-(2-oxooxazolidin-3-yl)acetyl)piperidin-3-yl)imidazo[1,5-a]pyrazin-1-yl)-N-(4-cyclopropylpyridin-2-yl)benzamide] | < 10 nM | –
14 | CC1(C(=O)N2CCOC(c3nc(-c4ccc(C(=O)Nc5cc(C(F)(F)F)ccn5)cc4)c4c(N)ncc(Cl)n34)C2)COC1 (stereo not drawn) [Example 315, 4-(8-amino-5-chloro-3-(4-(3-methyloxetane-3-carbonyl)morpholin-2-yl)imidazo[1,5-a]pyrazin-1-yl)-N-(4-(trifluoromethyl)pyridin-2-yl)benzamide] | < 10 nM | –
15 | Nc1nccn2c([C@@H]3CCCN(C(=O)C4CC4)C3)nc(-c3ccc(C(=O)Nc4cc(C(F)(F)F)ccn4)cc3)c12 [Example 103, (R)-4-(8-amino-3-(1-(cyclopropanecarbonyl)piperidin-3-yl)imidazo[1,5-a]pyrazin-1-(trifluoromethyl)pyridin-2-yl)benzamide] | – | < 10 nM
16 | CCC(=O)C(=O)N1C[C@H](c2nc(-c3ccc(C(=O)Nc4cc(C(F)(F)F)ccn4)cc3)c3c(N)nccn23)CC[C@@H]1C (relative stereo) [Example 200, 4-(8-amino-3-((cis)-6-methyl-1-(2-oxobutanoyl)piperidin-3-yl)imidazo[1,5-a]pyrazin-1-yl)-N-(4-(trifluoromethyl)-pyridin-2-yl)benzamide, TFA salt] | < 10 nM | –
17 | COCCC(=O)N1CCC[C@@H](c2nc(-c3ccc(C(=O)Nc4cc(C5CC5)ccn4)cc3)c3c(N)nccn23)C1 [Example 61, (R)-4-(8-amino-3-(1-(3-methoxypropanoyl)piperidin-3 yl)imidazo[1,5-a]pyrazin-1-yl)-N-(4-cyclopropylpyridin-2-yl)benzamide] | – | < 10 nM
18 | Nc1nccn2c(C3CC4CCC3N4C(=O)C3CCCO3)nc(-c3ccc(C(=O)Nc4ccccn4)cc3)c12 (stereo not drawn) [Example 146, 4-(8-amino-3-(7-(tetrahydrofuran-2-carbonyl)-7-azabicyclo[2.2.1]heptan-2-yl)imidazo[1,5-a]pyrazin-1-yl)-N-(pyridin-2-yl)benzamide] | – | 10 to 100 nM
19 | COc1cc(-c2nc([C@H]3CC[C@H](O)CC3)n3ccnc(N)c23)ccc1C(=O)Nc1ccccn1 [Example 9, 4-(8-amino-3-((trans)-4-hydroxycyclohexyl)imidazo[1,5-a]pyrazin-1-yl)-2-methoxy-N-(pyridin-2-yl)benzamide] | – | 10 to 100 nM
20 | CC1(C(=O)N2CCC[C@@H](n3nc(-c4ccc(C(=O)Nc5cc(C(F)(F)F)ccn5)cc4)c4c(N)ncnc43)C2)CCC1 [Example 266, (R)-4-(4-amino-1-(1-(1-methylcyclobutanecarbonyl)piperidin-3-yl)-1H-pyrazolo[3,4-d]pyrimidin-3-yl)-N-(4-(trifluoromethyl)pyridin-2-yl)benzamide] | < 10 nM | –
21 | COCC1(C(=O)N2CCC[C@@H](n3nc(-c4ccc(C(=O)Nc5cc(C(F)(F)F)ccn5)cc4)c4c(N)ncnc43)C2)CCC1 [Example 272, (R)-4-(4-amino-1-(1-(1-(methoxymethyl)cyclobutanecarbonyl)piperidin-3-yl)-1H-pyrazolo[3,4-d]pyrimidin-3-yl)-N-(4-(trifluoromethyl)pyridin-2-yl)benzamide] | – | 10 to 100 nM
